Laboratory results reported in patent US7863014B2 (priority 2001, dated 2011).

Key:
[1] = system: polyphosphate-dependent NAD kinase from Micrococcus flavus; type: biochemical
[2] = target: M. tuberculosis Ppnk protein (Mycobacterium tuberculosis, UniProt P9WHV7); type: biochemical, M. tuberculosis H37Rv
M. tuberculosis Ppnk protein, sequence (P9WHV7 whole entry): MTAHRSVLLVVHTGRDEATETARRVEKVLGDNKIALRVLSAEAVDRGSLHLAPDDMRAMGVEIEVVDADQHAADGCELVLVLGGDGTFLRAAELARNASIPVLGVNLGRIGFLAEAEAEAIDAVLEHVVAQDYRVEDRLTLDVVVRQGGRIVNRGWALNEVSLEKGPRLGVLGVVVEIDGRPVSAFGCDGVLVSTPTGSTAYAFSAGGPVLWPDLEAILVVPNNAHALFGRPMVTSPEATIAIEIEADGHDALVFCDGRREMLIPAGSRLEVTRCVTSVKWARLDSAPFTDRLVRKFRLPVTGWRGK

SMILES | Activation by metal ions [1] | Activation by metal ions [2] | further results
Nc1ncnc2c1ncn2[C@@H]1O[C@H](COP(=O)(O)OP(=O)(O)OP(=O)(O)O)[C@@H](O)[C@H]1O [ATP] | – | – | ATP/polyphosphate reaction ratio [1]: ATP (100%); ATP/polyphosphate reaction ratio [2]: ATP (100%)
[Cl][Al]([Cl])[Cl] [AlCl3] | AlCl3 (0%) | AlCl3 (0%) | –
[Ca+2].[Cl-].[Cl-] [CaCl2] | CaCl2 (65%) | CaCl2 (34%) | –
[Cl-].[Cl-].[Co+2] [CoCl2] | CoCl2 (51%) | CoCl2 (55%) | –
[Cl][Cu][Cl] [CuCl2] | CuCl2 (33%) | CuCl2 (8%) | –
[Cl-].[Cl-].[Mg+2] [MgCl2] | MgCl2 (100%) | MgCl2 (100%) | –
[Cl][Mn][Cl] [MnCl2] | MnCl2 (143%) | MnCl2 (268%) | –
[Cl-].[Cl-].[Zn+2] [ZnCl2] | ZnCl2 (30%) | ZnCl2 (30%) | –
O=P1(O)OP(=O)(O)OP(=O)(O)OP(=O)(O)OP(=O)(O)OP(=O)(O)O1 [hexametaphosphate] | – | – | Polyphosphate specificity [1]: (58%); Polyphosphate specificity [2]: (72%)
